Data taken from publication PMC7876005 (Communications Biology, 2021).
Where a SMILES comes first, the peptide text is derived from it.

Experiments:
Pgk1 = molecular target: T1, Pgk1 (Saccharomyces cerevisiae, UniProt P00560); experiment: microscale thermophoresis
T1 sequence (P00560 2-416): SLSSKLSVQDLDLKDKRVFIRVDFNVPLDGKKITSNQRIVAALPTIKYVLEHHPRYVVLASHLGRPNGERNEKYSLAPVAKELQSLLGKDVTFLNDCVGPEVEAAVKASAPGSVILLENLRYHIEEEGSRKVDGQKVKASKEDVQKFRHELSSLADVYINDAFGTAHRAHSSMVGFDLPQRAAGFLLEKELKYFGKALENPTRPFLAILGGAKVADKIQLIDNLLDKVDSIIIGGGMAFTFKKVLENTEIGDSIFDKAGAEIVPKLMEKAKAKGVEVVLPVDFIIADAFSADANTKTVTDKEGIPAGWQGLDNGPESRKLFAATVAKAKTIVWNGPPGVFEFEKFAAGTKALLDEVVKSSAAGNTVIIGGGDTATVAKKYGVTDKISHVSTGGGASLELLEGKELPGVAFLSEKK

Pnp1 = molecular target: T2, Pnp1 (Saccharomyces cerevisiae, UniProt Q05788); experiment: LC-MS assay of inosine conversion to hypoxanthine; type: biochemical
T2 construct: recombinant, overexpressed in yeast ORF collection strain (Dharmacon), purified; monomeric mass 33 kDa
T2 sequence (Q05788 2-311): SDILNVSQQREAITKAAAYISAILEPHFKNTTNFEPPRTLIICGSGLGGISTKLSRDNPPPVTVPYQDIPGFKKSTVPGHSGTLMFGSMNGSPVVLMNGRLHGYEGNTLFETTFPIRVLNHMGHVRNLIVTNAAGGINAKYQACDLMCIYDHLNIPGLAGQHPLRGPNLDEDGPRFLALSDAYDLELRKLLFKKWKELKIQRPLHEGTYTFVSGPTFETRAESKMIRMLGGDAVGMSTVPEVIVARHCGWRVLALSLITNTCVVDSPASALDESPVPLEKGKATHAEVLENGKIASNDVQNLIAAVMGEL

Kd (Pgk1)	inhibition at 100 µM (Pnp1)	SMILES
416 µM		CC(C)C[C@H](NC(=O)[C@@H](N)CO)C(=O)O [Ser-Leu] (H-Ser-Leu-OH)
	< 32%	O=c1[nH]c(=O)c2[nH]cnc2[nH]1 [xanthine]
122 µM		Nc1ncnc2c1ncn2[C@@H]1O[C@H](COP(=O)(O)OP(=O)(O)OP(=O)(O)O)[C@@H](O)[C@H]1O [ATP]
